# Experimental data from PMC10238420, “Altered Signaling and Desensitization Responses in PTH1R Mutants Associated with Eiken Syndrome” (Communications Biology, 2023).
# Where two headings read alike, the source gives them in different places.
# Key:
# [1] = target: T1, PTH1R-WT (Homo sapiens, UniProt Q03431); test: Glosensor cAMP agonist dose-response, Gs22a cells; format: cell-based; conditions: % of maximum response of each ligand on PTH1R-WT; five experiments
# [2] = target: T2, PTH1R-Y134S (Homo sapiens, UniProt Q03431, Y134S); test: Glosensor cAMP agonist dose-response, Gs22a cells; format: cell-based; conditions: % of maximum response of each ligand on PTH1R-WT; five experiments
# [3] = target: T3, PTH1R-H223R (Homo sapiens, UniProt Q03431, H223R); test: Glosensor cAMP agonist dose-response, Gs22a cells; format: cell-based; conditions: % of maximum response of each ligand on PTH1R-WT; five experiments
# [4] = target: T4, PTH1R-E35K (Homo sapiens, UniProt Q03431, E35K); test: Glosensor cAMP agonist dose-response, Gs22a cells; format: cell-based; conditions: % of maximum response of each ligand on PTH1R-WT; five experiments
# [5] = target: PTH1R-R485X (Homo sapiens, UniProt Q03431); test: cell-based
# [6] = tested on: PTH1R-R485X
# Protocol: (§1) Images are representative of three independent experiments.
# Data are representative of three independent experiments (a-d); or means ± SEM of three or four independent experiments (e, f). Bar heights in graphs of panels b and d indicate the means ± SEM of counts from the five cells shown by the individual data points. Scale bars in a and c indicate 10 μm.
# Ligand-induced recruitment of β-arrestin2^YFP was assessed in GBR-24 cells, which are HEK293/glosensor (Gs22A)-derived cells stably expressing β-arrestin2^YFP [42]. The cells in six-well plates were transiently transfected with plasmid DNA encoding PTH1R-WT or mutant derivative, and 24 hours later seeded onto glass coverslips in 6-well plates. […] In some experiments, the cells were imaged by confocal microscopy using a Leica DMi8 inverted Microscope at ×400 magnification, and the images were processed using Leica Application Suite X (LAS X) software. Regions of interest were digitally expanded 3-5X to improve views.
# Quantification of β-arrestin2^YFP clusters was performed using ImageJ software (vers. 1.53)[67]. The color images were converted to 8 bit and then 16 bit gray-scale, and the threshold was adjusted on a cell-by-cell basis to show distinct particles (interpreted as clusters of β-arrestin2^YFP in intracellular vesicles); threshold values ranged from ~ 20-60. The free-hand tool was used to define the area analyzed for each cell, and the Analyze Particle tool was used to obtain the number of particles, the total area, and the mean gray scale (intensity) of each particle for each cell.
# [7] = target: T4, PTH1R-E35K; test: Fluorescence microscopy of ligand internalization and β-arrestin2YFP recruitment, GBR-24 cells, ImageJ; format: cell-based
# Excerpt: as §1
# (§2) Scale bars in a and c indicate 10 μm.
# [8] = target: T1, PTH1R-WT; test: as above; format: cell-based; conditions: 30 min
# Excerpt: as §1, §2
# [9] = target: T2, PTH1R-Y134S; test: as above; format: cell-based
# Excerpt: as §1, §2
# [10] = target: T4, PTH1R-E35K; test: BRET β-arrestin2 recruitment to early endosomes (rGFP-FYVE), HEK293; format: cell-based
# Excerpt: as §1, §2
# [11] = target: T4, PTH1R-E35K; test: cAMP time course with ligand and after ligand washout (duration), Gs22a cells; format: cell-based; conditions: 10 nM, 30 min pretreatment
# Protocol: (§3) Data are means (±SEM) of five (a), four (b, c, e) or three (d) separate experiments.
# (§4) Fig. 7 Effects of Eiken mutation on duration of cAMP signaling and desensitization to ligand re-challenge. a Assays were performed in Gs22a cells transiently transfected to express PTH1R-WT or a mutant PTH1R. a Duration of initial cAMP signaling response. […] Response to Ligand rechallenge. After the washout-periods shown in panel a, the cells were rechallenged with the same ligand (1.0 nM) for 60 min and cAMP accumulation was assessed. […] P values indicate comparison by Student’s t test to pre-vehicle treatment: Data are means ± SEM from four separate experiments each in duplicate (b) or quadruplicate (a).
# (§5) Basal and ligand-stimulated cAMP signaling was assessed via the glosensor cAMP reporter in Gs22a cells transiently transfected to express either the WT or a mutant hPTH1R in white 96-well plates at room temperature. […] The plate was then placed into a PerkinElmer Envision plate reader and luminescence, as counts per second (cps), was measured at 2-min intervals for 15 min, during which time luciferin uptake occurred and luminescence reached a near steady-state baseline level. The plate was then removed from the plate reader, CIDB alone (vehicle) or containing a test ligand at varying concentrations was added, and luminescence was again measured at 2 min intervals for an additional 30–60 min. […]
# [12] = target: T4, PTH1R-E35K; test: BRET β-arrestin2 recruitment to plasma membrane (rGFP-CAAX), HEK293; format: cell-based
# Excerpt: as §1, §2
# [13] = target: T2, PTH1R-Y134S; test: cAMP time course with ligand and after ligand washout (duration), Gs22a cells; format: cell-based; conditions: 10 nM, 30 min pretreatment
# Protocol: as §3, §4, §5
# [14] = target: T3, PTH1R-H223R; test: Fluorescence microscopy of ligand internalization and β-arrestin2YFP recruitment, GBR-24 cells, ImageJ; format: cell-based; conditions: 10 nM, 30 min
# Excerpt: as §1
# [15] = tested on: PTH1R-R485X; conditions: 30 nM, 30 min, RT
# Protocol: (§6) To visualize receptors on the surface of non-stimulated cells, cells were fixed with 3.7% paraformaldehyde for 5 min at room temperature, incubated for 1 hour at room temperature with anti-HA mouse monoclonal primary antibody (anti-HA.11, BioLegend, Cat. No. 901513), rinsed, incubated for 1 h at room temperature with a goat-anti-mouse IgG secondary antibody poly-conjugated to HRP (poly-HRP-anti-mIgG; ThermoFisher Scientific, Cat. No. 32230), stained with Tyramide-Alexafluor-594 (Tyr^594; Tyramide SuperBoost Kit ThermoFisher Scientific, Cat. No. B4092), then mounted on a glass microscope slide in Vectashield containing DAPI and imaged using a Nikon Eclipse fluorescence microscope at 400X magnification.
# [16] = target: T1, PTH1R-WT; test: Visualization of surface receptors after PTH(1-34)FAM pre-stimulation; format: cell-based; conditions: 30 nM, 30 min, RT
# Protocol: as §6
# [17] = 30 nM TMR ligand (unlabeled: 10 nM), 30 min
molecule,measurement,setting,value
CC[C@H](C)[C@H](NC(=O)[C@H](CCC(=O)O)NC(=O)[C@H](CO)NC(=O)[C@@H](NC(=O)[C@@H](N)CO)C(C)C)C(=O)N[C@@H](CCC(N)=O)C(=O)N[C@@H](CC(C)C)C(=O)N[C@@H](CCSC)C(=O)N[C@@H](Cc1c[nH]cn1)C(=O)N[C@@H](CC(N)=O)C(=O)N[C@@H](CC(C)C)C(=O)NCC(=O)N[C@@H](CCCCN)C(=O)N[C@@H](Cc1c[nH]cn1)C(=O)N[C@@H](CC(C)C)C(=O)N[C@@H](CC(N)=O)C(=O)N[C@@H](CO)C(=O)N[C@@H](CCSC)C(=O)N[C@@H](CCC(=O)O)C(=O)N[C@@H](CCCNC(=N)N)C(=O)N[C@H](C(=O)N[C@@H](CCC(=O)O)C(=O)N[C@@H](Cc1c[nH]c2ccccc12)C(=O)N[C@@H](CC(C)C)C(=O)N[C@@H](CCCNC(=N)N)C(=O)N[C@@H](CCCCN)C(=O)N[C@@H](CCCCN)C(=O)N[C@@H](CC(C)C)C(=O)N[C@@H](CCC(N)=O)C(=O)N[C@@H](CC(=O)O)C(=O)N[C@H](C(=O)N[C@@H](Cc1c[nH]cn1)C(=O)N[C@@H](CC(N)=O)C(=O)N[C@@H](Cc1ccccc1)C(N)=O)C(C)C)C(C)C [PTH(1-34)],Emax,[1],100%
same,Emax,[2],96 ± 4%
same,Emax,[3],48 ± 6%
same,Emax,[4],106 ± 5%
same,Emax,[5]; read-out: Emax of that attained on PTH1R-WT,~80%
same,Emax,[5]; read-out: cAMP Emax,81 ± 10%
"AVSEH QL L H D KGrKSIQD L R R R FFL H H L IAEIH TAEI.N H 2 [PTHrP(1-36)^TMR, tetramethyl rhodamine attached to the epsilon amino function of lysine-13]","co-clustering of β-arrestin2YFP with ligand in endosomes, in words",[6]; [17],no co-clustering with β-arrestin2^YFP
same,"co-clustering of β-arrestin2YFP with ligand in endosomes, in words",[7]; [17],no co-clustering with β-arrestin2^YFP
same,"co-clustering of β-arrestin2YFP with ligand in endosomes, in words",[8]; 30 nM TMR ligand (unlabeled: 10 nM),robust co-clustering of the ligand in endosomes with β-arrestin2^YFP
same,"co-clustering of β-arrestin2YFP with ligand in endosomes, in words",[9]; [17],no co-clustering with β-arrestin2^YFP
AVSEIQL L H D KGKSIQD L R R R FFL H H L IAEIH TAEI.N H2 [Ile^5-PTHrP(1-36)],potency ratio vs PTHrP(1-36),[10],~10 fold
same,"potency vs PTH(1-34), in words",[10],as potent as PTH(1-34)
same,"duration of cAMP response vs His5-PTHrP(1-36), in words",[11],more sustained cAMP signaling response
same,"co-clustering of β-arrestin2YFP, in words",[6]; 10 nM unlabeled peptide,not
same,potency ratio vs PTHrP(1-36),[12],~10 fold
same,"potency vs PTH(1-34), in words",[12],as potent as PTH(1-34)
same,"co-clustering of β-arrestin2YFP, in words",[7]; 10 nM unlabeled peptide,r obust co-clust ering
same,"co-clustering of β-arrestin2YFP, in words",[9]; 10 nM unlabeled peptide,r obust co-clust ering
same,"duration of cAMP response vs His5-PTHrP(1-36), in words",[13],more sustained cAMP signaling response
"AVSEIQLnLHNLGrKH L ASVERnLQWLRKKLQDVHNF.NH2 [PTH(1-34)^TMR, tetramethyl rhodamine attached to the epsilon amino function of lysine-13]","co-localization of ligand clusters with β-arrestin2YFP, in words","[6]; 10 nM, 30 min",did not co-localize in clusters
same,"co-localization of ligand clusters with β-arrestin2YFP, in words",[14],co-localized with β-arrestin2^YFP
same,"co-localization of ligand clusters with β-arrestin2YFP, in words","[7]; 10 nM, 30 min",co-localized with β-arrestin2^YFP
same,"co-localization of ligand clusters with β-arrestin2YFP, in words",[8]; 10 nM,co-localized with β-arrestin2^YFP
same,"co-localization of ligand clusters with β-arrestin2YFP, in words","[9]; 10 nM, 30 min",co-localized with β-arrestin2^YFP
"SVSEIQL MH N L GfKH L N SMER VEWL R KKL QD VH N F.OH [PTH(1-34)FAM, 5(6)-carboxyfluorescein attached to the epsilon amino function of lysine-13]","ligand internalization, in words",[15],observed mainly in internalized clusters
same,"ligand internalization, in words",[16],observed mainly in internalized clusters
